PubChem BioAssay (NCI)
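How tested: cells in 96-well plates exposed to compound for 48 hours at five concentrations. At the GI50, growth is halved. TGI marks complete inhibition of growth.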

Key:
Test in all cases: NCI tumour cell line growth inhibition, 48 h
KM12 colon = system: KM12 colon
SK-MEL-28 melanoma = system: SK-MEL-28 melanoma
SN12C renal = system: SN12C renal
CAKI-1 renal = system: CAKI-1 renal
MOLT-4 leukemia = system: MOLT-4 leukemia
NCI/ADR-RES ovarian = system: NCI/ADR-RES ovarian
MDA-MB-231 breast = system: MDA-MB-231 breast
MDA-MB-435 = system: MDA-MB-435
OVCAR-4 ovarian = system: OVCAR-4 ovarian
RXF 393 renal = system: RXF 393 renal

Row | Structure (SMILES) | GI50 (KM12 colon) | TGI (KM12 colon) | GI50 (SK-MEL-28 melanoma) | TGI (SK-MEL-28 melanoma) | GI50 (SN12C renal) | TGI (SN12C renal) | GI50 (CAKI-1 renal) | TGI (CAKI-1 renal) | GI50 (MOLT-4 leukemia) | TGI (MOLT-4 leukemia) | GI50 (NCI/ADR-RES ovarian) | TGI (NCI/ADR-RES ovarian) | GI50 (MDA-MB-231 breast) | TGI (MDA-MB-231 breast) | GI50 (MDA-MB-435) | TGI (MDA-MB-435) | GI50 (OVCAR-4 ovarian) | TGI (OVCAR-4 ovarian) | TGI (RXF 393 renal) | GI50 (RXF 393 renal)
1 | CCN(CC)CCN1C(=O)c2cccc3c(-c4ccc5c(c4)ncn5C4CCCCC4)ccc(c23)C1=O | 1.52 µM | 3.2 µM | 1.63 µM | 3.1 µM | 1.27 µM | 2.78 µM | 1.71 µM | 5.45 µM | 1.1 µM | 3.88 µM | 1.45 µM | 4.26 µM | 1.63 µM | 3.19 µM | 1.68 µM | 3.22 µM | 1.07 µM | 4.56 µM |  | 
2 | O=C1/C(=C/c2ccc(O)cc2)NC(=S)N1CN1CCCCC1 |  | > 100 µM |  | > 100 µM |  | > 100 µM |  |  |  | > 100 µM |  | > 100 µM |  | > 100 µM |  | > 100 µM |  | > 100 µM |  | 
3 | CSCCC(NC(=O)C(Cc1ccccc1)NC(=O)CNC(=O)CNC(=O)C(N)Cc1ccc(O)cc1)C(=O)O (configuration not stated) |  | > 100 µM |  | > 100 µM |  | > 100 µM |  | > 100 µM |  | > 100 µM |  | > 100 µM |  |  |  |  |  | > 100 µM | > 100 µM | 
4 | Clc1cc2nc(C3CCCO3)[nH]c2cc1Cl (configuration not stated) |  | > 100 µM |  | > 100 µM |  | > 100 µM |  |  |  | > 100 µM |  | > 100 µM |  | > 100 µM |  | > 100 µM |  | > 100 µM | > 100 µM | 
5 | O=C(N=Nc1ccc([N+](=O)[O-])cc1)NNc1ccc([N+](=O)[O-])cc1 |  |  |  | 36.2 µM |  | 40.5 µM |  | > 100 µM |  | 40.8 µM |  |  |  | 76.2 µM |  | 57.5 µM |  | 44.8 µM |  | 
6 | CSC1=N/C(=C\c2cccs2)C(=O)N1CN1CCOCC1 |  | > 100 µM |  | > 100 µM |  | > 100 µM |  |  |  | > 100 µM |  | 90.5 µM |  | > 100 µM |  | > 100 µM |  | 86.7 µM |  | 
7 | ON=C1CCCCC(=NO)CCCC1 |  | > 100 µM |  | > 100 µM |  | > 100 µM |  | > 100 µM |  |  |  | > 100 µM |  | > 100 µM |  | > 100 µM |  | > 100 µM |  | 
8 | COCCO |  | > 100 µM |  | > 100 µM |  | > 100 µM |  | > 100 µM |  | > 100 µM |  | > 100 µM |  |  |  |  |  | > 100 µM | > 100 µM | 
9 | CCOC(=O)C(SCCO)C(C(=O)OCC)n1ccc(N)nc1=O (configuration not stated) |  | > 100 µM |  | > 100 µM |  | > 100 µM |  | > 100 µM |  | > 100 µM |  | > 100 µM |  | > 100 µM |  | > 100 µM |  | > 100 µM |  | 
10 | COc1ccc2nc(-c3ccc(OC(=O)N(C)C)cc3)cn2c1 |  | > 100 µM |  | > 100 µM |  | > 100 µM |  | > 100 µM |  | > 100 µM |  | > 100 µM |  | > 100 µM |  | > 100 µM |  | > 100 µM |  | 
11 | O=[N+]([O-])c1cc2n[nH]nc2c2nonc12 |  | > 100 µM |  | > 100 µM |  | > 100 µM |  | 77.7 µM |  | 95.6 µM |  | > 100 µM |  | > 100 µM |  | 30.1 µM |  | > 100 µM |  | 
12 | CCN(CC)CCNc1ccc([N+](=O)[O-])c2nc3ccccc3c(N)c12 |  | 1.41 µM |  |  |  | > 10 µM |  | > 10 µM |  | 2.23 µM |  | 1.94 µM |  | 2.4 µM |  | 1.67 µM |  | 1.48 µM | 1.52 µM | 
13 | CN(C)c1nc(N(C)C)nc(N(C)CN(C)c2ccccc2)n1 |  | > 100 µM |  | > 100 µM |  | > 100 µM |  |  |  | > 100 µM |  |  |  |  |  |  |  | > 100 µM | > 100 µM | 
14 | NC(=O)c1cnc2sc3ccccc3n2c1=O |  | > 100 µM |  | > 100 µM |  | > 100 µM |  | > 100 µM |  | > 100 µM |  | > 100 µM |  | > 100 µM |  |  |  | > 100 µM | > 100 µM | 
15 | Cc1ccc2nc3c(C(=O)NCCN(C)C)cccc3cc2c1 |  | 12.6 µM |  | 6.67 µM |  | 7.06 µM |  |  |  |  |  | 4.25 µM |  |  |  |  |  |  | 7.02 µM | 
16 | CSc1ccc2c(c1)c(CCN)c(C)n2Cc1ccc(Cl)c(Cl)c1 |  |  | 1.67 µM | 3.17 µM |  |  | 1.82 µM | 3.85 µM |  |  |  |  | 1.69 µM | 3.39 µM |  |  |  |  | 3.12 µM | 1.66 µM
17 | N#CS/C(C(Cl)=C(Cl)Cl)=C(/Cl)[N+](=O)[O-] |  | 32.4 µM |  | 3.45 µM |  | 4.92 µM |  | 2.42 µM |  | 2.19 µM |  | > 28.1 µM |  | 11.9 µM |  | 3.19 µM |  |  | 2.98 µM | 
18 | N#CC12COC3(CCCCC3C1(C#N)C#N)OC2=N (configuration not stated) |  |  |  | 46.8 µM |  | 24.8 µM |  | 14.2 µM |  | 79.7 µM |  | > 100 µM |  | 33.3 µM |  | 64.7 µM |  |  | 25.8 µM | 
19 | NCCCNCCSSCc1ccccc1CSSCCNCCCN |  | > 100 µM |  | > 100 µM |  | > 100 µM |  | > 100 µM |  | > 100 µM |  |  |  |  |  |  |  | > 100 µM | > 100 µM | 
